# Experimental data from patent publication US9394291B2, “Benzoxazinone amides as mineralocorticoid receptor modulators” (AstraZeneca AB, priority 2014, dated 2016).
# Like-named read-outs stand apart in the source and are kept apart here.
# Experiments:
# [1] = molecular target: T1, MR (UAS-MR-bla HEK293 cells) (Homo sapiens, UniProt P08235); experiment: Mineralocorticoid Cellular Reporter Gene Assay, Test B1 (0.25 nM aldosterone)
# human MR LBD [2] = molecular target: T2, human MR LBD (Homo sapiens (Human), UniProt P08235); experiment: Mineralocorticoid Binding, Test A1 (SPA beads, 3H-aldosterone displacement); details: displacement of 5 nM 3H-aldosterone, MBP-MR LBD/P23 lysate
# human MR LBD [3] = molecular target: T2, human MR LBD; details: read-out: Test A2 IC50; displacement of 5 nM 3H-aldosterone, MBP-MR LBD/P23 lysate, Imaging beads
# Experimental: In order to identify binding to the human MR LBD a scintillation proximity assay (SPA) was adapted to the 384-well format. The MR-LBD (amino acids T729-K985) was expressed as N-terminal fusion with maltose binding protein in Hi5 insect cells by co-infection with recombinant MBP-MR LBD and P23 baculoviruses and crude protein lysate was used in the assay.
# Briefly, in Test A1 the assay was run in 384 well format in 10 mM Tris-HCl, pH 7.5, 0.5 mM EDTA 20 mM NaMoO4, 0.1 mM DTT and 10% glycerol at rt. Compounds were tested in a 7 (Test A1) or 10 (Test A2) concentration response curve ranging from 10 nM to 10 μM (Test A1) or 1 nM to 37 μM (Test A2). Compounds were spotted at the bottom of a well of a 384-well PE Opti-Plate to yield final DMSO concentrations in the assay of 2%. Pre-made MBP-MR/P23 lysate: ^3H-aldosterone mix (final assay concentration 7 μg/mL MBP-MR LBD/P23 lysate; 5 nM aldosterone) was added onto the top of the spotted compound and preincubated for 1 h at RT. […] The inhibition of the scintillation signal by displacement of the bound ^3H-aldosterone by test compounds is measured by scintillation counting using a Microbeta Trilux (Wallac) (Test A1) or a by CCD camera detection using a LEADseeker (PerkinElmer) (Test A2).
# [4] = molecular target: T1, MR (UAS-MR-bla HEK293 cells); experiment: cell-based
# T1 sequence (P08235 whole entry, looked up, the tested form may be a part): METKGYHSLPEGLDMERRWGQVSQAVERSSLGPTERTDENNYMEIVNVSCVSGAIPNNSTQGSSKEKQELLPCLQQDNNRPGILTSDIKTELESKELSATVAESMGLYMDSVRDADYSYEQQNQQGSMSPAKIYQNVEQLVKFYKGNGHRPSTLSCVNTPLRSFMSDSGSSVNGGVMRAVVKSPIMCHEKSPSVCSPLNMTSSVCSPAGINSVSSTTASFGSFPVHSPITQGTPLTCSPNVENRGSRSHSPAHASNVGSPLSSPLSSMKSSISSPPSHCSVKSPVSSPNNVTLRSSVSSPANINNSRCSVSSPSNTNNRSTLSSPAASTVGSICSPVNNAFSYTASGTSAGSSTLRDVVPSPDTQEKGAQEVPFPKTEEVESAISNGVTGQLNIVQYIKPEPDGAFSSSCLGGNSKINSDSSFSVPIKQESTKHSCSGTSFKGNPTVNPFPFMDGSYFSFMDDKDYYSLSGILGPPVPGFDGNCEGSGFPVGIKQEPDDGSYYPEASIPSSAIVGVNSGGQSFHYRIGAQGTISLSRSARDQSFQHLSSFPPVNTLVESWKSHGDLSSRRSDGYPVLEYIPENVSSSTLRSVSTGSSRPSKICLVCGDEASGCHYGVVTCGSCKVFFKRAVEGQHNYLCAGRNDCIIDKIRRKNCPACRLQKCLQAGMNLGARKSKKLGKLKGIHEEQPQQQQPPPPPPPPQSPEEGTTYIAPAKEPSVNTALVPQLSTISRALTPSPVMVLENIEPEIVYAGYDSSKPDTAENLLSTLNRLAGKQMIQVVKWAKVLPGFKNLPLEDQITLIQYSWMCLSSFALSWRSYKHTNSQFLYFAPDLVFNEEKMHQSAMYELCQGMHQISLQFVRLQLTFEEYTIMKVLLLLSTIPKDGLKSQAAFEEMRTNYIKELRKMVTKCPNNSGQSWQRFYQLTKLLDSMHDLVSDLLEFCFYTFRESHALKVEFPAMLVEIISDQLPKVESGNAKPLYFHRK
# T2 sequence (P08235 729-984 limits assumed): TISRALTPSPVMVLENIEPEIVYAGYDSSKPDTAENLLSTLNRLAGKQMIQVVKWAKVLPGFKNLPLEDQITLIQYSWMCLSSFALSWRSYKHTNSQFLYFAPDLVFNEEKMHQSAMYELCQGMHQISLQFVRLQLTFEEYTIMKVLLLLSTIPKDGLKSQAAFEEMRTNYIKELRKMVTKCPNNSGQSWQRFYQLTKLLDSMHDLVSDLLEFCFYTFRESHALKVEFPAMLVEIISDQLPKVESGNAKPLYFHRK
SMILES,"inhibition at 100 µM ([1]; HEK293, read-out: Test B1, % at 100 μM) [%]",IC50 (human MR LBD [2]) [nM],IC50 [1] [nM],IC50 (human MR LBD [3]) [nM],IC50 [4] [nM]
"CNC(=O)C[C@@H]1COc2cc(F)ccc2N1C(=O)c1ccc2c(c1)NC(=O)CO2 [Example 4b, 2-{(3R)-7-Fluoro-4-[(3-oxo-3,4-dihydro-2H-1,4-benzoxazin-6-yl)carbonyl]-3,4-dihydro-2H-1,4-benzoxazin-3-yl}-N-methylacetamide]",35,,,,
"NC(=O)C[C@H]1COc2cc(Br)ccc2N1C(=O)c1ccc2c(c1)NC(=O)CO2 [Example 7, 2-{(3S)-7-Bromo-4-[(3-oxo-3,4-dihydro-2H-1,4-benzoxazin-6-yl)carbonyl]-3,4-dihydro-2H-1,4-benzoxazin-3-yl}acetamide]",,9.5,45,,
NC(=O)CC1COc2ccccc2N1C(=O)c1ccc2c(c1)NC(=O)CO2 (stereo not shown) [Example 1],,1400,2100,2900,620
